This note sets out measurements from patent US8865623B2, “Herbicidally active cyclic diones and derivatives thereof, processes for their preparation, compositions, and method of controlling weeds” (Syngenta Limited, priority 2009, dated 2014).

Holding throughout (format): in vivo
Assay [1] relates to Alopecurus myosuroides (ALOMY). The assay is described as follows: Pre-emergence herbicidal activity, glasshouse pot test. The note with it: Alopecurus myosuroides, 312 h, Rate 250 g/ha, evaluated after 13 days, read-out: Pre-emergence activity ALOMY (100=total damage to plant; 0=no damage to plant). The essentials: (§1)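 Visual damage (0 = no damage, 100 = total damage) was rated 13 days after spraying. Treatment was applied one day after sowing for pre-emergence, or after 8 days of cultivation for post-emergence, as aqueous spray of an acetone/water (50:50) formulation with 0.5% Tween 20.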

Assay [2] concerns Avena fatua (AVEFA). The assay is described as above. To be noted: Avena fatua, 312 h, Rate 250 g/ha, evaluated after 13 days, read-out: Pre-emergence activity AVEFA (100=total damage to plant; 0=no damage to plant). The method, boiled down:
as §1

Assay [3] has as its system Echinochloa crus-galli (ECHCG). The assay is described as above. The note with it: Echinochloa crus-galli, 312 h, Rate 250 g/ha, evaluated after 13 days, read-out: Pre-emergence activity ECHCG (100=total damage to plant; 0=no damage to plant). The method, boiled down:
as §1

In assay [4] the test system is Lolium perenne (LOLPE). Described as above. The note with it: Lolium perenne, 312 h, Rate 250 g/ha, evaluated after 13 days, read-out: Pre-emergence activity LOLPE (100=total damage to plant; 0=no damage to plant). The method, boiled down: as §1
Assay [5] deals with Alopecurus myosuroides (ALOMY). The assay is described as follows: Post-emergence herbicidal activity, glasshouse pot test. To be noted: Alopecurus myosuroides, 312 h, rate 250 g/ha, evaluated after 13 days, read-out: Post-emergence activity ALOMY (100=total damage to plant; 0=no damage to plant). The essentials:
as §1

Assay [6] concerns Avena fatua (AVEFA). The assay is described as above. The note with it: Avena fatua, 312 h, rate 250 g/ha, evaluated after 13 days, read-out: Post-emergence activity AVEFA (100=total damage to plant; 0=no damage to plant). The method, boiled down:
as §1

The test system of assay [7] is Echinochloa crus-galli (ECHCG). Described as above. The note with it: Echinochloa crus-galli, 312 h, rate 250 g/ha, evaluated after 13 days, read-out: Post-emergence activity ECHCG (100=total damage to plant; 0=no damage to plant). The essentials:
as §1

The subject of assay [8] is Lolium perenne (LOLPE). The assay is described as above. To be noted: Lolium perenne, 312 h, rate 250 g/ha, evaluated after 13 days, read-out: Post-emergence activity LOLPE (100=total damage to plant; 0=no damage to plant). The essentials:
as §1

Turning to `CC1(C)OC(C)(C)C(O)=C(c2cc(Oc3ccc(Cl)c(F)c3)ccc2C2CC2)C1=O` [Example A-347], the pest or weed control at 250 g/ha in assay [1] (pre-emergence) was 70%; in assay [2] (pre-emergence), 10%; in assay [3] (pre-emergence) it was 100%; in assay [4] (pre-emergence), 100%; in assay [5] it was 90%; in assay [6] it was 50%. Besides, the pest or weed control at 250 g/ha in assay [7] and in assay [8] was 100% in each case.

Turning to `CCc1ccc(Oc2nc3ccccc3s2)cc1C1=C(O)CC(C)(C)CC1=O` [Example A-286], the pest or weed control at 250 g/ha in assay [1] (pre-emergence spray) was determined as 90%; in assay [2] (pre-emergence spray) it was 40%; in assay [3] (pre-emergence spray), 100%; in assay [4] (pre-emergence spray), 100%; in assay [5] (glasshouse), 100%; in assay [6] (glasshouse) it was 90%. For the same compound, the pest or weed control at 250 g/ha in assay [7] (glasshouse) and in assay [8] (glasshouse) was 100% throughout.

Take `CCc1ccc(Oc2nc3cc(Cl)ccc3s2)cc1C1=C(O)[C@@H]2CC[C@](C)(C1=O)C2(C)C` [Example A-322]: the pest or weed control at 250 g/ha amounted to 60% in assay [1] (pre-emergence spray); 40% in assay [2] (pre-emergence spray); 100% in assay [3] (pre-emergence spray); 100% in assay [4] (pre-emergence spray); 90% in assay [5] (glasshouse); 80% in assay [6] (glasshouse). Also, the values for the pest or weed control at 250 g/ha in assay [7] (glasshouse) and in assay [8] (glasshouse) were 100% and 90%, respectively.

Turning to `CCc1ccc(Oc2ccc([N+](=O)[O-])c(Cl)c2)cc1C1=C(O)CC2(CCOCC2)CC1=O` [Example A-276], the pest or weed control at 250 g/ha in assay [1] (pre-emergence spray) turned out to be 40%; in assay [2] (pre-emergence spray), 10%; in assay [3] (pre-emergence spray) it was 100%; in assay [4] (pre-emergence spray) it was 70%; in assay [5] (glasshouse), 60%; in assay [6] (glasshouse), 10%. Further, the results for the pest or weed control at 250 g/ha in assay [7] (glasshouse) and in assay [8] (glasshouse) were 100% and 40%, respectively.

Take `CCc1ccc(Oc2nc(OC)cc(OC)n2)cc1C1=C(O)C(C)(C)OC(C)(C)C1=O` [Example A-127]: the pest or weed control at 250 g/ha in assay [1] (pre-emergence spray), in assay [2] (pre-emergence spray), in assay [3] (pre-emergence spray), in assay [4] (pre-emergence spray), in assay [5] (glasshouse) and in assay [6] (glasshouse) was 0% in each case. Further, the pest or weed control at 250 g/ha amounted to 30% in assay [7] (glasshouse) and 10% in assay [8] (glasshouse).

On to `CCc1ccc(Oc2nc3ccc(Cl)cc3s2)cc1C1=C(O)C(C)(C)OC(C)(C)C1=O` [Example A-106], for which the pest or weed control at 250 g/ha worked out at 60% in assay [1] (pre-emergence spray); 20% in assay [2] (pre-emergence spray); 90% in assay [3] (pre-emergence spray); 100% in assay [4] (pre-emergence spray); 90% in assay [5] (glasshouse); 50% in assay [6] (glasshouse). Also, the pest or weed control at 250 g/ha in assay [7] (glasshouse) amounted to 90%; in assay [8] (glasshouse), 80%.

For the compound `CCc1ccc(Oc2ccc(Cl)c(F)c2)cc1C1=C(O)[C@H]2CC[C@H](C2)C1=O` [Example A-249], the pest or weed control at 250 g/ha in assay [1] (pre-emergence spray) was 60%; in assay [2] (pre-emergence spray), 60%; in assay [3] (pre-emergence spray) it was 90%; in assay [4] (pre-emergence spray) it was 90%; in assay [5] (glasshouse) it was 90%; in assay [6] (glasshouse), 100%. Moreover, the results for the pest or weed control at 250 g/ha in assay [7] (glasshouse) and in assay [8] (glasshouse) were 100% and 70%, respectively.

For the compound `CCc1ccc(Oc2ccc3nc(Cl)cn3n2)cc1C1=C(O)C(C)(C)OC(C)(C)C1=O` [Example A-131], the pest or weed control at 250 g/ha was 30% in assay [1] (pre-emergence spray); 40% in assay [2] (pre-emergence spray); 90% in assay [3] (pre-emergence spray); 60% in assay [4] (pre-emergence spray); 70% in assay [5] (glasshouse); 80% in assay [6] (glasshouse). Further, the pest or weed control at 250 g/ha was 90% in assay [7] (glasshouse) and 70% in assay [8] (glasshouse).

As for `CCc1ccc(Oc2ccc(C(F)(F)F)cn2)cc1C1=C(O)[C@H]2CC[C@H](C2)C1=O` [Example A-334], the pest or weed control at 250 g/ha in assay [1] (pre-emergence spray) is 100%; in assay [2] (pre-emergence spray), 100%; in assay [3] (pre-emergence spray), 100%; in assay [4] (pre-emergence spray), 100%; in assay [5] (glasshouse), 90%; in assay [6] (glasshouse), 100%. In addition, the pest or weed control at 250 g/ha in assay [7] (glasshouse) and in assay [8] (glasshouse) was 100% throughout.

For the compound `CCc1ccc(Oc2ccc(Cl)c(F)c2)cc1C1=C(O)CCCC1=O` [Example A-68], the pest or weed control at 250 g/ha turned out to be 30% in assay [1] (pre-emergence spray); 30% in assay [2] (pre-emergence spray); 100% in assay [3] (pre-emergence spray); 70% in assay [4] (pre-emergence spray); 60% in assay [5] (glasshouse); 40% in assay [6] (glasshouse). The pest or weed control at 250 g/ha in assay [7] (glasshouse) is 100%; in assay [8] (glasshouse), 60%.

Take `CCc1ccc(Oc2nc3ccc([N+](=O)[O-])cc3s2)cc1C1=C(O)CC(C)(C)CC1=O` [Example A-299]: the pest or weed control at 250 g/ha in assay [1] (pre-emergence spray) was determined as 50%; in assay [2] (pre-emergence spray) it was 20%; in assay [3] (pre-emergence spray), 100%; in assay [4] (pre-emergence spray) it was 100%; in assay [5] (glasshouse), 90%; in assay [6] (glasshouse), 90%. The figures for the pest or weed control at 250 g/ha in assay [7] (glasshouse) and in assay [8] (glasshouse) were 100% and 80%, respectively.

On to `CC1(C)OC(C)(C)C(O)=C(c2cc(Oc3nc4ccc(Cl)cc4s3)ccc2C2CC2)C1=O` [Example A-366], for which the pest or weed control at 250 g/ha was determined as 50% in assay [1] (pre-emergence); 30% in assay [2] (pre-emergence); 90% in assay [3] (pre-emergence); 90% in assay [4] (pre-emergence); 100% in assay [5]; 80% in assay [6]. The pest or weed control at 250 g/ha in assay [7] and in assay [8] was 100% throughout.

With `CCc1ccc(Oc2nc3ccc(Cl)cc3s2)cc1C1=C(O)[C@H]2CC[C@H](C2)C1=O` [Example A-338], the pest or weed control at 250 g/ha in assay [1] (pre-emergence spray) was 90%; in assay [2] (pre-emergence spray) it was 80%; in assay [3] (pre-emergence spray), 100%; in assay [4] (pre-emergence spray), 100%; in assay [5] (glasshouse), 100%; in assay [6] (glasshouse) it was 100%. The pest or weed control at 250 g/ha in assay [7] (glasshouse) and in assay [8] (glasshouse) was 100% throughout.

Consider `CCc1ccc(Oc2ccc(C(F)(F)F)cc2Cl)cc1C1=C(O)CC(C)(C)CC1=O` [Example A-281], for which the pest or weed control at 250 g/ha was 70% in assay [1] (pre-emergence spray); 0% in assay [2] (pre-emergence spray); 100% in assay [3] (pre-emergence spray); 80% in assay [4] (pre-emergence spray); 90% in assay [5] (glasshouse); 80% in assay [6] (glasshouse). The results for the pest or weed control at 250 g/ha in assay [7] (glasshouse) and in assay [8] (glasshouse) were 100% and 60%, respectively.
